From patent US9365522B2, “Pyrazole amide derivative” (AMGEN INC., priority 2015, dated 2016) come the findings set out here.

SMILES strings stand for the structures. A value given as a limit tells only on which side of the number the result lay.

For this assay, the target named is T1, ligand binding domain of human ROR gamma (Homo sapiens, UniProt P51449).
T1 construct: NM_001001523; expressed in transfected cells; host or cells: HEK293T
T1 sequence (P51449 247-497 isoform P51449-2): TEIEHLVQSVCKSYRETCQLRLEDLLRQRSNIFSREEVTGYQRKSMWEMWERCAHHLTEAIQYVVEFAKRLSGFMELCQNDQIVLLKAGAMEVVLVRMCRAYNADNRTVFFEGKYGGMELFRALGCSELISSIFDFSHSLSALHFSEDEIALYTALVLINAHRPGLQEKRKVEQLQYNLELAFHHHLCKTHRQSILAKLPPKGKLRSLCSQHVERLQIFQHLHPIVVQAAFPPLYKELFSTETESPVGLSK
Nature of the assay: ROR gamma reporter gene assay (GAL4-RORγ LBD luciferase, Dual-Glo). It counts as cell-based. The settings on record: HEK293T cells transfected with pM-ROR gamma, 8 concentrations 3.5 nM to 10.5 μM, 24 h incubation; read-out: result (pIC50, inhibition of RORγ transcriptional activity) (converted). An outline of the steps:
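Transient GAL4-RORγ LBD (aa 247-497) / 5×UAS-luc / pRL-CMV cotransfection in HEK293T, charcoal-stripped 10% FBS. 8-pt dose, 3.5 nM–10.5 μM, 0.075% DMSO final. 24 h, 37 °C, 5% CO2. Dual-Glo firefly/renilla readout; pIC50 from curve fit.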
A general note: In a reporter assay the amount or activity of a reporter protein is the signal.
Take `CC1(C)[C@@H]2C[C@H](N(CC(=O)c3c(Cl)cc(F)cc3Cl)C(=O)c3cnn([C@H]4CC[C@](C)(C(=O)O)CC4)c3C(F)(F)F)C[C@@H]21` [Example 199, trans-4-(4-((2-(2,6-dichloro-4-fluorophenyl)-2-oxoethyl)-((1R,3r,5S)-6,6-dimethyl-3-bicyclo[3.1.0]hexanyl)carbamoyl)-5-(trifluoromethyl)pyrazol-1-yl)-1-methylcyclohexane-1-carboxylic acid]: the IC50 was 5010 pM. Then `O=C(CN(CC1CC2(CC2)C1)C(=O)c1cnn([C@H]2CC[C@H](C(=O)O)CC2)c1C(F)(F)F)c1c(Cl)cncc1Cl` [Example 200, trans-4-(4-((2-(3,5-dichloropyridin-4-yl)-2-oxoethyl)-(spiro[2.3]hexan-5-ylmethyl)carbamoyl)-5-(trifluoromethyl)pyrazol-1-yl)cyclohexane-1-carboxylic acid], with 15800 pM; and `Cn1nc(Cl)c(C(=O)CN(Cc2cc(F)cc(F)c2)C(=O)c2cnn([C@H]3CC[C@H](C(=O)O)CC3)c2C(F)(F)F)c1Cl` [Example 201, trans-4-(4-((2-(3,5-dichloro-1-methylpyrazol-4-yl)-2-oxoethyl)-((3,5-difluorophenyl)methyl)carbamoyl)-5-(trifluoromethyl)pyrazol-1-yl)cyclohexane-1-carboxylic acid], with greater than 1e+07 pM. Then `C[C@]1(C(=O)O)CC[C@H](n2ncc(C(=O)N(CC(=O)c3c(Cl)cc(F)cc3Cl)CC3CC4(CC4)C3)c2C(F)(F)F)CC1` [Example 202, trans-4-(4-((2-(2,6-dichloro-4-fluorophenyl)-2-oxoethyl)-(spiro[2.3]hexan-5-ylmethyl)carbamoyl)-5-(trifluoromethyl)pyrazol-1-yl)-1-methylcyclohexane-1-carboxylic acid], with 7940 pM; and `CC(C)(C)CC1CC(N(CC(=O)c2c(Cl)cc(F)cc2Cl)C(=O)c2cnn([C@H]3CC[C@](C)(C(=O)O)CC3)c2C(F)(F)F)C1` (stereo partly drawn) [Example 203, trans-4-(4-((2-(2,6-dichloro-4-fluorophenyl)-2-oxoethyl)-(3-(2,2-dimethylpropyl)cyclobutyl)carbamoyl)-5-(trifluoromethyl)pyrazol-1-yl)-1-methylcyclohexane-1-carboxylic acid], with 912000 pM. For `CC(C1CC2(CC2)C1)N(CC(=O)c1c(Cl)cncc1Cl)C(=O)c1cnn([C@H]2CC[C@H](C(=O)O)CC2)c1C(F)(F)F` (stereo partly drawn) [Example 204, trans-4-(4-((2-(3,5-dichloropyridin-4-yl)-2-oxoethyl)-(1-spiro[2.3]hexan-5-ylethyl)carbamoyl)-5-(trifluoromethyl)pyrazol-1-yl)cyclohexane-1-carboxylic acid], the IC50 was 60300 pM. Next, `CC1(C)CCCC(N(CC(=O)c2c(Cl)cncc2Cl)C(=O)c2cnn([C@H]3CC[C@H](C(=O)O)CC3)c2C(F)(F)F)C1` (stereo partly drawn) [Example 205, trans-4-(4-((2-(3,5-dichloropyridin-4-yl)-2-oxoethyl)-(3,3-dimethylcyclohexyl)carbamoyl)-5-(trifluoromethyl)pyrazol-1-yl)cyclohexane-1-carboxylic acid]: 138000 pM; `Cc1cc(Cl)c(C(=O)CN(CC#CC(C)(C)C)C(=O)c2cnn([C@H]3CC[C@](C)(C(=O)O)CC3)c2C(F)(F)F)c(Cl)c1` [Example 206, trans-4-(4-((2-(2,6-dichloro-4-methylphenyl)-2-oxoethyl)-(4,4-dimethylpent-2-ynyl)carbamoyl)-5-(trifluoromethyl)pyrazol-1-yl)-1-methylcyclohexane-1-carboxylic acid]: 100000 pM; `CC(C)(C)C#CCN(CC(=O)c1c(Cl)cc(Cl)cc1Cl)C(=O)c1cnn([C@H]2CC[C@](C)(C(=O)O)CC2)c1C(F)(F)F` [Example 207, trans-4-(4-(4,4-dimethylpent-2-ynyl-(2-oxo-2-(2,4,6-trichlorophenyl)ethyl)carbamoyl)-5-(trifluoromethyl)pyrazol-1-yl)-1-methylcyclohexane-1-carboxylic acid]: 63100 pM.
